Consider eight compounds from PubChem BioAssay AID240 (DTP/NCI, 2004).

The test relates to Lymphoma 4 ip in BDF1 mice, median survival. Briefly: NCI In Vivo Anticancer Drug Screen. Data for tumor model Lymphoma 4 (intraperitoneal) in B6D2F1 (BDF1) mice. The conditions noted are these: endpoint: median survival time, higher = longer survival. The method, then:
The antitumor activity of compounds was measured in mice bearing transplantable tumors. Survival or tumor size were measured and the results are expressed as the measurement made in the treated group (T) divided by the measurement made in the vehicle treated control group (C). The tumor model used in this assay is Lymphoma 4 (intraperitoneal) in B6D2F1 (BDF1) mice

[1] abbreviates: dose: 62.5 mg/kg/injection, schedule: Q01DX010 (ip), vehicle: saline.
Where [2] appears, read: dose: 250.0 mg/kg/injection, schedule: Q01DX010 (ip), vehicle: saline.
Setting [3] is: dose: 10.0 mg/kg/injection, schedule: Q01DX010 (ip), vehicle: saline.
Setting [4] is: dose: 20.0 mg/kg/injection, schedule: Q01DX010 (ip), vehicle: saline.

Structures are written as SMILES. Values joined by “and” are separate entries in the source; they are usually repeats but may differ in a detail not shown here. Equal entries are not always repeated. Toxic doses and inconclusive results are not listed.

Take `C[C@]12C=CC(=O)C=C1CC[C@@H]1[C@@H]2[C@@H](O)C[C@@]2(C)[C@H]1CC[C@]2(O)C(=O)CO`: the T/C was 123 % of control (dose: 12.5 mg/kg/injection, schedule: Q01DX010 (sc), vehicle: steriod suspending solution); 116 % of control (dose: 25.0 mg/kg/injection, schedule: Q01DX010 (sc), vehicle: steriod suspending solution); 110 % of control (dose: 50.0 mg/kg/injection, schedule: Q01DX010 (sc), vehicle: steriod suspending solution); 116 % of control (dose: 100.0 mg/kg/injection, schedule: Q01DX010 (sc), vehicle: steriod suspending solution).

For `CN(C)c1nc(N(C)C)nc(N(C)C)n1`, the T/C (dose: 18.8 mg/kg/injection, schedule: Q01DX010 (ip), vehicle: saline) was 96 % of control and 100 % of control; the T/C (dose: 37.5 mg/kg/injection, schedule: Q01DX010 (ip), vehicle: saline) was 100 % of control; the T/C (dose: 75.0 mg/kg/injection, schedule: Q01DX010 (ip), vehicle: saline) is 100 % of control; the T/C (dose: 150.0 mg/kg/injection, schedule: Q01DX010 (ip), vehicle: saline) was 100 % of control and 103 % of control.

With `CC(=O)N(C)C`, the T/C by setting is: under setting [1], 87 % of control; under setting [2], 88 % of control; (dose: 500.0 mg/kg/injection, schedule: Q01DX010 (ip), vehicle: saline) 100 % of control.

In the case of `N#CCSc1ncnc2nc[nH]c12`, the T/C (dose: 15.0 mg/kg/injection, schedule: Q01DX010 (ip), vehicle: saline) was 103 % of control; the T/C (dose: 30.0 mg/kg/injection, schedule: Q01DX010 (ip), vehicle: saline) is 100 % of control and 107 % of control; the T/C (dose: 60.0 mg/kg/injection, schedule: Q01DX010 (ip), vehicle: saline) was 100 % of control and 107 % of control; the T/C (dose: 120.0 mg/kg/injection, schedule: Q01DX010 (ip), vehicle: saline) is 107 % of control.

`COc1ccc2c(c1OC)C(=O)O[C@@H]2[C@H]1c2c(cc3c(c2OC)OCO3)CCN1C`: the T/C is, setting by setting: (dose: 15.6 mg/kg/injection, schedule: Q01DX010 (ip), vehicle: saline) 107 % of control; (dose: 31.3 mg/kg/injection, schedule: Q01DX010 (ip), vehicle: saline) 106 % of control and 107 % of control; under setting [1], 96 % of control and 107 % of control; (dose: 125.0 mg/kg/injection, schedule: Q01DX010 (ip), vehicle: saline) 93 % of control and 96 % of control; under setting [2], 93 % of control.

As for `O=c1[nH]c(=O)n(C2CC(O)C(CO)O2)cc1F` (stereo not given), the T/C by setting is: under setting [3], 103 % of control; under setting [4], 116 % of control and 123 % of control; (dose: 40.0 mg/kg/injection, schedule: Q01DX010 (ip), vehicle: saline) 119 % of control.

For the compound `CS(=O)(=O)OCC(O)C(O)C(O)C(O)COS(C)(=O)=O` (stereo not given), the T/C runs as follows: (dose: 50.0 mg/kg/injection, schedule: Q01DX010 (ip), vehicle: saline) 100 % of control; (dose: 100.0 mg/kg/injection, schedule: Q01DX010 (ip), vehicle: saline) 103 % of control; (dose: 200.0 mg/kg/injection, schedule: Q01DX010 (ip), vehicle: saline) 103 % of control; (dose: 400.0 mg/kg/injection, schedule: Q01DX010 (ip), vehicle: saline) 114 % of control.

Turning to `O=c1[nH]cc(F)c(=O)[nH]1`, the T/C was 161 % of control (dose: 5.0 mg/kg/injection, schedule: Q01DX010 (ip), vehicle: saline); 179 % of control and 180 % of control under setting [3]; 193 % of control and 246 % of control under setting [4].
